Reference: ChEMBL document CHEMBL3425490, “Activity of lipo-cyclic γ-AApeptides against biofilms of Staphylococcus epidermidis and Pseudomonas aeruginosa” (Bioorg Med Chem Lett, 2015)
Values after ≈ are worked out from the molar mass of the structure shown. Active and inactive are the calls of the source. The rule behind the calls is not given here.

Tests used:
[1] = system: Pseudomonas aeruginosa; assay: Antibacterial activity against Pseudomonas aeruginosa ATCC 27853 after 18 hrs by broth microdilution method; type: functional; details: ATCC 27853, 18 h
[2] = system: Staphylococcus epidermidis; assay: Inhibition of biofilm formation of methicillin-resistant Staphylococcus epidermidis ATCC 35984 at 6.25 to 12.56 after 24 hrs by crystal violet staining-based assay relative to control; type: functional, RP62A
[3] = system: Staphylococcus epidermidis; assay: Antibacterial activity against methicillin-resistant Staphylococcus epidermidis ATCC 35984 after 18 hrs by broth microdilution method; type: functional; details: RP62A
[4] = system: Pseudomonas aeruginosa; assay: Induction of pre-existing Pseudomonas aeruginosa ATCC 27853 biofilm detachment after 24 hrs by crystal violet staining-based assay relative to control; type: functional; design: concentration or dose not given beside the values
[5] = system: Staphylococcus epidermidis; assay: Bactericidal activity against methicillin-resistant Staphylococcus epidermidis ATCC 35984 assessed as decrease in log10CFU/ml at 12.5 to 50 ug/ml incubated for 6 hrs followed by plating measured after 24 hrs relative to control; type: functional, RP62A; details: for Activity: RP62A
[6] = Hemolytic activity in human RBC after 1 hr; type: ADME, cell-based, Erythrocyte; details: red blood cells (RBC)
[7] = system: Staphylococcus epidermidis; assay: Induction of pre-existing methicillin-resistant Staphylococcus epidermidis ATCC 35984 biofilm detachment after 24 hrs by crystal violet staining-based assay relative to control; type: functional, RP62A; design: concentration or dose not given beside the values
[8] = system: Pseudomonas aeruginosa; assay: Inhibition of biofilm formation of Pseudomonas aeruginosa ATCC 27853 at 6.25 to 12.56 after 24 hrs by crystal violet staining-based assay relative to control; type: functional
[9] = system: Pseudomonas aeruginosa; assay: Bactericidal activity against Pseudomonas aeruginosa ATCC 27853 assessed as decrease in log10CFU/ml at 12.5 to 50 ug/ml incubated for 6 hrs followed by plating measured after 24 hrs relative to control; type: functional
[10] = system: Pseudomonas aeruginosa; assay: Inhibition of biofilm formation of Pseudomonas aeruginosa ATCC 27853 after 24 hrs by crystal violet staining-based assay; type: functional
[11] = system: Staphylococcus epidermidis; assay: Inhibition of biofilm formation of methicillin-resistant Staphylococcus epidermidis ATCC 35984 after 24 hrs by crystal violet staining-based assay relative to control; type: functional
[12] = system: Pseudomonas aeruginosa; assay: microbe, parasite or virus in culture; details: 5761
Description: Antibacterial activity against Pseudomonas aeruginosa 5761 by macrobroth dilution method

[13] = system: Pseudomonas aeruginosa; assay: microbe, parasite or virus in culture; details: 11683
Description: Antibacterial activity against Pseudomonas aeruginosa 11683 by macrobroth dilution method

[14] = system: Staphylococcus epidermidis; assay: microbe, parasite or virus in culture; details: RP62A
Description: Antibacterial activity against oxacillin-resistant Staphylococcus epidermidis ATCC 35984

[15] = system: Pseudomonas aeruginosa; assay: microbe, parasite or virus in culture; details: 8545
Description: Antibacterial activity against Pseudomonas aeruginosa 8545 by macrobroth dilution method

[16] = system: Staphylococcus epidermidis; assay: microbe, parasite or virus in culture; details: RP62A; remark: listed apart in the source
Description: Antibacterial activity against oxacillin-susceptible Staphylococcus epidermidis ATCC 35984

| SMILES | MIC [1] | inhibition (INH) [2] | MIC [3] | Activity [4] | deltalog10CFU [5] | HC50 at 1 h [6] | Activity [7] | inhibition (INH) [8] | deltalog10CFU [9] | inhibition [10] | inhibition ([11]; RP62A) | Activity [5] | MIC [12] | MIC [13] | MIC [14] | MIC [15] | Activity [9] | MIC [16] | inhibition (INH) [10] | inhibition (INH) [11] |
| --- | --- | --- | --- | --- | --- | --- | --- | --- | --- | --- | --- | --- | --- | --- | --- | --- | --- | --- | --- | --- |
| CCCCCCCCCCCCCCCC(=O)N(CC(N)=O)C[C@H](CCCCN)NC(=O)CN1C[C@H](Cc2ccccc2)NC(=O)CN(C(=O)CCCN)C[C@H](Cc2ccccc2)NC(=O)CN(C(=O)CCCN)C[C@H](Cc2ccccc2)NC(=O)CN(C(=O)CCCN)C[C@H](Cc2ccccc2)NC(=O)CCC1=O | 3 µM (≈ 4.58 µg/mL) | 70% | 0.6 µM (≈ 0.915 µg/mL) | 50% | 8 | 65 µM | 30% | 80% | 6 | – | – | – | – | – | – | – | – | – | – | – |
| O=C(O)c1cn(C2CC2)c2cc(N3CCNCC3)c(F)cc2c1=O [CIPROFLOXACIN] | – | – | – | 50% | – | – | 30% | – | – | Active | Active | Active | 0.09 µg/mL (≈ 0.272 µM) | 0.09 µg/mL (≈ 0.272 µM) | 0.12 µg/mL (≈ 0.362 µM) | 0.09 µg/mL (≈ 0.272 µM) | Active | 0.12 µg/mL (≈ 0.362 µM) | – | – |
| CCCCCCCCCCCCCCCC(=O)N(CC(N)=O)C[C@H](CCCCN)NC(=O)CN1C[C@H](Cc2ccccc2)NC(=O)CN(C(=O)CCc2ccccc2)C[C@H](CCCCN)NC(=O)CN(C(=O)CCCN)C[C@H](Cc2ccccc2)NC(=O)CN(C(=O)CCCN)C[C@H](Cc2ccccc2)NC(=O)CN(C(=O)CCc2ccccc2)C[C@H](CCCCN)NC(=O)CCC1=O | 14 µM (≈ 26 µg/mL) | – | 3 µM (≈ 5.57 µg/mL) | 50% | – | 82 µM | 10% | – | – | – | – | – | – | – | – | – | – | – | 60% | 40% |
| CCCCCCCCCCCCCCCC(=O)N(CC(N)=O)C[C@H](CCCCN)NC(=O)CN1C[C@H](Cc2ccccc2)NC(=O)CN(C(=O)CCc2ccccc2)C[C@H](CCCCN)NC(=O)CN(C(=O)CCc2ccccc2)C[C@H](CCCCN)NC(=O)CN(C(=O)CCc2ccccc2)C[C@H](CCCCN)NC(=O)CCC1=O | 12 µM (≈ 19.3 µg/mL) | – | 1 µM (≈ 1.61 µg/mL) | 60% | – | 160 µM | 10% | – | – | – | – | – | – | – | – | – | – | – | 60% | 40% |
| CCCCCCCCCCCCCCCC(=O)N(CC(N)=O)C[C@H](CCCCN)NC(=O)CN1C[C@H](Cc2ccccc2)NC(=O)CN(C(=O)CCc2ccccc2)C[C@H](CCCCN)NC(=O)CN(C(=O)CCCN)C[C@H](Cc2ccccc2)NC(=O)CN(C(=O)CCc2ccccc2)C[C@H](CCCCN)NC(=O)CCC1=O | 6 µM (≈ 9.49 µg/mL) | – | 3 µM (≈ 4.74 µg/mL) | 50% | – | 114 µM | 10% | – | – | – | – | Active | – | – | – | – | Active | – | 60% | 40% |
| CCCCCCCCCCCCCCCC(=O)N(CC(N)=O)C[C@H](CCCCN)NC(=O)CN1C[C@H](Cc2ccccc2)NC(=O)CN(C(=O)CCc2ccccc2)C[C@H](CCCCN)NC(=O)CN(C(=O)CCc2ccccc2)C[C@H](CCCCN)NC(=O)CN(C(=O)CCc2ccccc2)C[C@H](CCCCN)NC(=O)CN(C(=O)CCc2ccccc2)C[C@H](CCCCN)NC(=O)CCC1=O | 13 µM (≈ 24.9 µg/mL) | – | 13 µM (≈ 24.9 µg/mL) | 50% | – | 130 µM | 10% | – | – | – | – | Active | – | – | – | – | Active | – | 60% | 40% |
| CCCCCCCCCCCCCCCC(=O)N(CC(N)=O)C[C@H](CCCCN)NC(=O)CN1C[C@H](Cc2ccccc2)NC(=O)CN(C(=O)CCCN)C[C@H](Cc2ccccc2)NC(=O)CN(C(=O)CCCN)C[C@H](Cc2ccccc2)NC(=O)CN(C(=O)CCc2ccccc2)C[C@H](CCCCN)NC(=O)CCC1=O | 6 µM (≈ 9.32 µg/mL) | – | 0.6 µM (≈ 0.932 µg/mL) | – | – | 129 µM | – | – | – | – | – | – | – | – | – | – | – | – | – | – |
